This is an account of results in US12479849B2, “EGFR inhibitors for the treatment of cancer” (Hoffmann-La Roche Inc., priority 2019, dated 2025).

What is called IC50 is the concentration needed to halve the response being measured. Low readings indicate greater potency, high ones weaker potency.

Structures can show the parent of a compound that is named as a salt.

In this assay the target is T1, EGFR TMLRCS (Homo sapiens, UniProt P00533, C797S/L858R/T790M).
T1 construct: host or cells: BaF3-TMLRCS (Ba/F3 cells, kept under puromycin selection)
T1 sequence (P00533 25-1210 T790M/C797S/L858R): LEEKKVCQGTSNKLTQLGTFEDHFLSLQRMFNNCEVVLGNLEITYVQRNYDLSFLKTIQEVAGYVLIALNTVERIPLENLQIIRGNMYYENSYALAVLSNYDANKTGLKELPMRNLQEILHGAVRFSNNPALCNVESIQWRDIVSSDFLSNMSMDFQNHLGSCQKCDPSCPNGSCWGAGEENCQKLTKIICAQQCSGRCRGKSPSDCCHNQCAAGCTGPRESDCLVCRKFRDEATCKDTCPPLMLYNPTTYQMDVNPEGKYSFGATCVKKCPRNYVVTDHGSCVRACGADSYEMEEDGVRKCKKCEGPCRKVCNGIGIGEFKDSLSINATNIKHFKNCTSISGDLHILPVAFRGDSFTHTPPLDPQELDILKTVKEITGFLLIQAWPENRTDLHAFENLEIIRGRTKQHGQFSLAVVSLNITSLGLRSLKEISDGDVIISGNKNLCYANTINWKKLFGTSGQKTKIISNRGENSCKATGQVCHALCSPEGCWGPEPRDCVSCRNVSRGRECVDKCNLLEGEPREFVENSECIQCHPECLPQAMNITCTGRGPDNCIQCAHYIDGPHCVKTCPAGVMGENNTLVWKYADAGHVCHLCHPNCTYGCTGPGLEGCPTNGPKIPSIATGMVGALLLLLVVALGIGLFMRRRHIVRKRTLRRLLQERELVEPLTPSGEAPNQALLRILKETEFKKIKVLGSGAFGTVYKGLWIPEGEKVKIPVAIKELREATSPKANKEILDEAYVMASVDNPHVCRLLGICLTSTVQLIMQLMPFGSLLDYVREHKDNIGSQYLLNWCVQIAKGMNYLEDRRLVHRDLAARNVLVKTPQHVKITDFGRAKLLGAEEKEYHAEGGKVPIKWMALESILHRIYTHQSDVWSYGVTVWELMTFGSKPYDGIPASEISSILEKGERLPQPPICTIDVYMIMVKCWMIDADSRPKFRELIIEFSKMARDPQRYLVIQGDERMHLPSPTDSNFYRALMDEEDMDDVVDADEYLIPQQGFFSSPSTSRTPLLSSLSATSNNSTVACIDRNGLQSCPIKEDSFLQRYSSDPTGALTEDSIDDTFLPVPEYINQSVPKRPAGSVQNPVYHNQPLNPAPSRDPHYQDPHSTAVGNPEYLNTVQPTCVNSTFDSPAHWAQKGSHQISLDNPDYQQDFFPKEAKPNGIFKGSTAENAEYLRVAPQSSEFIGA
Nature of the assay: HTRF Phospho EGFR TMLRCS Assay (Cellular). The class given is cell-based. The note with it: BaF3-TMLRCS cell line, 4 hours incubation, Phospho-EGFR HTRF readout. On the procedure: HTRF Phospho EGFR TMLRCS Assay (Cellular)
BaF3-TMLRCS cell line were obtained from Crownbio (San Diego, CA, USA). Cells were maintained at 37° C., 5% CO2 in RPMI ATCC (Gibco 31870)+2 mM Glutamine+0.5 μg/ml Puromycin supplemented with 10% fetal bovine serum (FBS) (Gibco).
Cells are transferred as above to Greiner Bio-One, Nr. 784-08 micro-titerplate at 20000 cells/well in 12.5 μl of growth medium/well after the plates had been pre-filled with 12.5 nl of DMSO solutions of the to be tested compounds (in dose response) or DMSO only. After spinning the plates at 300×g for 30 seconds the cells were incubated for 4 hours at 37 C, 5% CO2, 95% humidity. The cells were lysed by adding to the compound mix 4 μl/well of the supplemented lysis buffer (Cis-bio, Phospho-EGFR HTRF kit, 64EG1PEH), followed by incubation for 30 min at room temperature with shaking (400 rpm). The plates were then frozen and stored overnight at −80 C. On the next day and after thawing the plates, 4 μl of a mixture of anti-Phospho-EGFR Cryptate and of anti-Phospho-EGFR-d2 antibody solutions prepared in the supplied detection buffer was added to each well. The lidded plates were then incubated for 4 h at room temperature before reading the fluorescence emission at 616 and 665 nm using an Envision reader (Perkin Elmer). Data was analyzed in similar fashion as above using the normalized ratio of the 665 to 616 signals multiplied by 10000.
`O=C(Nc1nccs1)C(c1ncn2c1C[C@@H](F)C2)n1cc2c(Cl)cc(-c3ccc(C4CCNCC4)cc3)c(Cl)c2n1` (mixture of isomers) [Example 30, 2-[4,7-Dichloro-6-(4-piperidin-4-ylphenyl)indazol-2-yl]-2-[rac-(6R)-6-fluoro-6,7-dihydro-5H-pyrrolo[1,2-c]imidazol-1-yl]-N-(1,3-thiazol-2-yl)acetamide hydrochloride]: the IC50 was determined as 33 nM.

The compound `O=C(Nc1nccs1)C(c1ncn2c1C[C@@H](F)C2)n1cc2c(Cl)cc(-c3ccc(CCCN4CCC(O)CC4)cc3)c(Cl)c2n1` (mixture of isomers) [Example 57, rac-2-(4,7-Dichloro-6-(4-(3-(4-hydroxypiperidin-1-yl)propyl)phenyl)-2H-indazol-2-yl)-2-((R)-6-fluoro-6,7-dihydro-5H-pyrrolo[1,2-c]imidazol-1-yl)-N-(thiazol-2-yl)acetamide] came in with an IC50 of 7 nM. The compound `CC(CCO)N1CCC(Oc2ccc(-c3cc(Cl)c4cn(C(C(=O)Nc5nccs5)c5ncn6c5C[C@@H](F)C6)nc4c3Cl)cc2)CC1` (mixture of isomers) [Example 86, 2-[4,7-Dichloro-6-[4-[[1-(3-hydroxy-1-methyl-propyl)-4-piperidyl]oxy]phenyl]indazol-2-yl]-2-[rac-(6R)-6-fluoro-6,7-dihydro-5H-pyrrolo[1,2-c]imidazol-1-yl]-N-thiazol-2-yl-acetamide] gave an IC50 of 6 nM. For `CCN(CC)CC1(c2ccc(-c3cc(C)c4cn(C(C(=O)Nc5nccs5)c5ncn6c5C[C@@H](F)C6)nc4c3C)cc2)CC1` (stereo partly drawn) [Example 122, 2-(6-(4-(1-((Diethylamino)methyl)cyclopropyl)phenyl)-4,7-dimethyl-2H-indazol-2-yl) ((R)-6-fluoro-6,7-dihydro-5H-pyrrolo[1,2-c]imidazol-1-yl)-N-(thiazol-2-yl)acetamide] the value was 19 nM; for `CN(CCN1CC(O)C1)c1ccc(-c2cc(Cl)c3cn(C(C(=O)Nc4nccs4)c4ncn5c4C[C@@H](F)C5)nc3c2Cl)cc1` (stereo partly shown) [Example 90], 12 nM; for `O=C(Nc1nccs1)C(c1ncn2c1C[C@@H](F)C2)n1cc2c(Cl)cc(-c3ccc(N4CCC(CN5CCC(O)C5)CC4)cc3)c(Cl)c2n1` (mixture of isomers) [Example 74, rac-2-(4,7-Dichloro-6-(4-(4-((3-hydroxypyrrolidin-1-yl)methyl)piperidin-1-yl)phenyl)-2H-indazol-2-yl)-2-((R)-6-fluoro-6,7-dihydro-5H-pyrrolo[1,2-c]imidazol-1-yl)-N-(thiazol-2-yl)acetamide], 12 nM.

As for `CCN1CC[C@@H](c2ccc(-c3cc(C)c4cn(C(C(=O)Nc5nccs5)c5ncn6c5C[C@@H](F)C6)nc4c3Cl)cc2)[C@H](F)C1` (single isomer, unassigned) [Example 129], the IC50 worked out at 10 nM. To `CCN1CC[C@H](c2ccc(-c3cc(Cl)c4cn(C(C(=O)Nc5nccs5)c5ncn6c5C[C@@H](F)C6)nc4c3Cl)cc2)[C@@H](F)C1` (single isomer, unassigned) [Example 37] belongs 10 nM. To `O=C(Nc1nccs1)C(c1ncn2c1C[C@@H](F)C2)n1cc2c(Cl)cc(-c3ccc(N4CCC(O)CC4)cc3)c(Cl)c2n1` (mixture of isomers) [Example 39, rac-2-(4,7-Dichloro-6-(4-(4-hydroxypiperidin-1-yl)phenyl)-2H-indazol-2-yl)-2-((R)-6-fluoro-6,7-dihydro-5H-pyrrolo[1,2-c]imidazol-1-yl)-N-(thiazol-2-yl)acetamide] belongs 4 nM; to `CCN1CCC(c2ccc(-c3cc(Cl)c4cn(C(C(=O)Nc5nccs5)c5ncn6c5CCC6)nc4c3Cl)cc2)CC1` (stereo not shown) [Example 104, 2-(4,7-Dichloro-6-(4-(1-ethylpiperidin-4-yl)phenyl)-2H-indazol-2-yl)-2-(6,7-dihydro-5H-pyrrolo[1,2-c]imidazol-1-yl)-N-(thiazol-2-yl)acetamide], 12 nM.

With `O=C(Nc1nccs1)C(c1ncn2c1C[C@@H](F)C2)n1cc2c(Cl)cc(-c3ccc(N4CCN(CCO)CC4)cc3)c(Cl)c2n1` (mixture of isomers) [Example 61, rac-2-(4,7-Dichloro-6-(4-(4-(2-hydroxyethyl)piperazin-1-yl)phenyl)-2H-indazol-2-yl)-2-((R)-6-fluoro-6,7-dihydro-5H-pyrrolo[1,2-c]imidazol-1-yl)-N-(thiazol-2-yl)acetamide], the IC50 is 3 nM. To `CCN1CC[C@H](c2ccc(-c3cc(Cl)c4cn(C(C(=O)Nc5nccs5)c5ncn6c5C[C@@H](F)C6)nc4c3Cl)cc2)[C@@H](F)C1` (mixture of isomers) [Example 32, 2-(4,7-Dichloro-6-(4-(rac-(3R,4R)-1-ethyl-3-fluoropiperidin-4-yl)phenyl)-2H-indazol-2-yl)-2-((R)-6-fluoro-6,7-dihydro-5H-pyrrolo[1,2-c]imidazol-1-yl)-N-(thiazol-2-yl)acetamide] belongs 4 nM; to `Cc1cc(-c2ccc(C3CCN(CC(C)F)CC3)cc2)c(Cl)c2nn(C(C(=O)Nc3nccs3)c3ncn4c3C[C@@H](F)C4)cc12` (mixture of isomers) [Example 131, rac-2-(7-Chloro-6-(4-(1-(2-fluoropropyl)piperidin-4-yl)phenyl)-4-methyl-2H-indazol-2-yl)-2-((R)-6-fluoro-6,7-dihydro-5H-pyrrolo[1,2-c]imidazol-1-yl)-N-(thiazol-2-yl)acetamide], 192 nM; to `CCN1CCN(c2ccc(-c3cc(Cl)c4cn(C(C(=O)Nc5nccs5)c5ncn6c5C[C@@H](F)C6)nc4c3Cl)cc2)CC1` (stereo partly drawn) [Example 26, 2-(4,7-Dichloro-6-(4-(4-ethylpiperazin-1-yl)phenyl)-2H-indazol-2-yl)-2-((R)-6-fluoro-6,7-dihydro-5H-pyrrolo[1,2-c]imidazol-1-yl)-N-(thiazol-2-yl)acetamide], 4 nM. Consider `O=C(Nc1nccs1)C(c1ncn2c1C[C@@H](F)C2)n1cc2c(Cl)cc(-c3ccc(CN4CCC(CO)CC4)cc3)c(Cl)c2n1` (mixture of isomers) [Example 53, rac-2-(4,7-Dichloro-6-(4-04-(hydroxymethyl)piperidin-1-yl)methyl)phenyl)-2H-indazol-2-yl)-2-((R)-6-fluoro-6,7-dihydro-5H-pyrrolo[1,2-c]imidazol-1-yl)-N-(thiazol-2-yl)acetamide], for which the half-inhibitory concentration (IC50) is 5 nM. To `CCN1CC(c2ccc(-c3cc(Cl)c4cn(C(C(=O)Nc5nccs5)c5ncn6c5C[C@@H](F)C6)nc4c3Cl)cc2)C1` (stereo partly drawn) [Example 83, 2-(4,7-Dichloro-6-(4-(1-ethylazetidin-3-yl)phenyl)-2H-indazol-2-yl)-2-((R)-6-fluoro-6,7-dihydro-5H-pyrrolo[1,2-c]imidazol-1-yl)-N-(thiazol-2-yl)acetamide] belongs 10 nM; to `O=C(Nc1nccs1)C(c1ncn2c1C[C@@H](F)C2)n1cc2c(Cl)cc(-c3ccc(N4CCN5CCC4C5)cc3)c(Cl)c2n1` (mixture of isomers) [Example 72, rac-2-(6-(4-(1,4-Diazabicyclo[3.2.1]octan-4-yl)phenyl)-4,7-dichloro-2H-indazol-2-yl)-2-((R)-6-fluoro-6,7-dihydro-5H-pyrrolo[1,2-c]imidazol-1-yl)-N-(thiazol-2-yl)acetamide], 5 nM. To `CC(F)CN1CCC(c2ccc(-c3cc(Cl)c4cn(C(C(=O)Nc5nccs5)c5ncn6c5C[C@@H](F)C6)nc4c3Cl)cc2)CC1` (stereo partly drawn) [Example 44, 2-(4,7-Dichloro-6-(4-(1-(2-fluoropropyl)piperidin-4-yl)phenyl)-2H-indazol-2-yl)-2-((R)-6-fluoro-6,7-dihydro-5H-pyrrolo[1,2-c]imidazol-1-yl)-N-(thiazol-2-yl)acetamide] belongs 13 nM.

Take `CCN1CCCC2(C1)CN(c1ccc(-c3cc(Cl)c4cn(C(C(=O)Nc5nccs5)c5ncn6c5C[C@@H](F)C6)nc4c3Cl)cc1)C2` (stereo partly drawn) [Example 73, 2-(4,7-Dichloro-6-(4-(6-ethyl-2,6-diazaspiro[3.5]nonan-2-yl)phenyl)-2H-indazol-2-yl)-2-((R)-6-fluoro-6,7-dihydro-5H-pyrrolo[1,2-c]imidazol-1-yl)-N-(thiazol-2-yl)acetamide]: inhibition was half-maximal at 10 nM (IC50).

For the compound `CCN1C[C@@H]2CN(c3ccc(-c4cc(Cl)c5cn(C(C(=O)Nc6nccs6)c6ncn7c6C[C@@H](F)C7)nc5c4Cl)cc3)C[C@@H]2C1` (stereo partly drawn) [Example 81, 2-(4,7-Dichloro-6-(4-((3aR,6aS)-5-ethylhexahydropyrrolo[3,4-c]pyrrol-2(1H)-yl)phenyl)-2H-indazol-2-yl)-2-((R)-6-fluoro-6,7-dihydro-5H-pyrrolo[1,2-c]imidazol-1-yl)-N-(thiazol-2-yl)acetamide], the IC50 came out at 9 nM. For `CCN1CC[C@@H](c2ccc(-c3cc(C)c4cn(C(C(=O)Nc5nccs5)c5ncn6c5C[C@@H](F)C6)nc4c3C)cc2)[C@H](F)C1` (single isomer, unassigned) [Example 119] the value was 14 nM; for `CCN1CCC(c2ccc(-c3cc(Cl)c4cn(C(C(=O)Nc5nccs5)c5ncn6c5C[C@@H](F)C6)nc4c3Cl)cc2)CC1` (mixture of isomers) [Example 31, 2-[4,7-Dichloro-6-[4-(1-ethylpiperidin-4-yl)phenyl]indazol-2-yl]-2-[rac-(6R)-6-fluoro-6,7-dihydro-5H-pyrrolo[1,2-c]imidazol-1-yl]-N-(1,3-thiazol-2-yl)acetamide], 10 nM.
